Data published in patent publication USRE35044E, “Cyanine compounds” (Asahi Chemical Co., Ltd., priority 1987, dated 1995).

Columns and labels:
[1] = Absorption maximum and molar absorptivity in solution; format: physicochemical; design: ε: unit not given here
[2] = Test for solubility in solvent; format: physicochemical
Protocol: Each of cyanine dyes as shown below in Table 2 was dissolved in methanol and the solubility was determined at room temperature with the results indicated below in Table 2.

## CCOc1cc(OCC)c2c(c1)C(C)(C)C(=CC=CC=CC1=[N+](CC)c3c(OCC)cc(OCC)cc3C1(C)C)N2CC [Preparation Example 2]
[1]; dichloromethane
  ε: 1.72×10^5

## CCOc1cc(C)c2c(c1)C(C)(C)C(=CC=CC=CC1=[N+](CC)c3c(C)cc(OCC)cc3C1(C)C)N2CC [Preparation Example 7]
[1]; dichloroethane
  ε: 1.75×10^5

## CCN1C(=CC=CC=CC2=[N+](CC)c3c(OC)cc(OC)cc3C2(C)C)C(C)(C)c2cc(OC)cc(OC)c21 [Preparation Example 1]
[1]; alcohol
  ε: 1.84×10^5
  λmax: 693 nm

## CCOc1ccc2c(c1)C(C)(C)C(=CC=CC=CC=CC1=[N+](C)c3ccc(OCC)cc3C1(C)C)N2C [Compound A]
[2]
  solubility in solvents (in words): does not exhibit good solubility

## CCOc1ccc2c(c1)C(C)(C)C(=CC=CC=CC1=[N+](C)c3ccc(OCC)cc3C1(C)C)N2C [Compound B]
[2]
  solubility in solvents (in words): not satisfactory in solubility
